For assay [1], the target named is TaqCad1 R408D/A411E variant (Thermoanaerobaculum aquaticum). Description: SEC; gel filtration elution profiles of wild type and R408D/A411E compared; column and buffer of this run not stated.
In assay [2] the target is T1, TaqCad1 (Thermoanaerobaculum aquaticum, UniProt A0A062XY19).
T1 construct: gene EG19_07865; full length 1-625, C-terminal His6 tag kept, E. coli NiCo21(DE3); homohexamer (trimer of dimers); N-terminal CARF, C-terminal ADA domain
Briefly: microscale thermophoresis (RED-tris-NTA labelled protein). Format: binding. (In general: Microscale thermophoresis detects binding through changes in fluorescence in a small temperature gradient.)

The target of assay [3] is T2, TaqCad1 (Thermoanaerobaculum aquaticum, UniProt A0A062XY19, N549D).
T2 construct: gene EG19_07865; full length 1-625, C-terminal His6 tag kept, E. coli NiCo21(DE3); homohexamer (trimer of dimers); N-terminal CARF, C-terminal ADA domain
Briefly: HPLC ATP deamination assay. The note with it: no conversion; cA4 activator, Mg2+, pH 7.5, 55 °C. The format is biochemical.

Assay [4] has as its target T3, TaqCad1 (Thermoanaerobaculum aquaticum, UniProt A0A062XY19, G264D/N549D).
T3 construct: gene EG19_07865; full length 1-625, C-terminal His6 tag kept, E. coli NiCo21(DE3); homohexamer (trimer of dimers); N-terminal CARF, C-terminal ADA domain
Description: HPLC ATP deamination assay. The format is biochemical. The conditions noted are these: no conversion; cA4 activator, Mg2+, pH 7.5, 55 °C.

The values below come from PMC12669630, “The twist-and-squeeze activation of CARF-fused adenosine deaminase by cyclic oligoadenylates” (The EMBO Journal, 2025).

Like-named read-outs stand apart in the source and are kept apart here.

T1 sequence (A0A062XY19 entry or part of it): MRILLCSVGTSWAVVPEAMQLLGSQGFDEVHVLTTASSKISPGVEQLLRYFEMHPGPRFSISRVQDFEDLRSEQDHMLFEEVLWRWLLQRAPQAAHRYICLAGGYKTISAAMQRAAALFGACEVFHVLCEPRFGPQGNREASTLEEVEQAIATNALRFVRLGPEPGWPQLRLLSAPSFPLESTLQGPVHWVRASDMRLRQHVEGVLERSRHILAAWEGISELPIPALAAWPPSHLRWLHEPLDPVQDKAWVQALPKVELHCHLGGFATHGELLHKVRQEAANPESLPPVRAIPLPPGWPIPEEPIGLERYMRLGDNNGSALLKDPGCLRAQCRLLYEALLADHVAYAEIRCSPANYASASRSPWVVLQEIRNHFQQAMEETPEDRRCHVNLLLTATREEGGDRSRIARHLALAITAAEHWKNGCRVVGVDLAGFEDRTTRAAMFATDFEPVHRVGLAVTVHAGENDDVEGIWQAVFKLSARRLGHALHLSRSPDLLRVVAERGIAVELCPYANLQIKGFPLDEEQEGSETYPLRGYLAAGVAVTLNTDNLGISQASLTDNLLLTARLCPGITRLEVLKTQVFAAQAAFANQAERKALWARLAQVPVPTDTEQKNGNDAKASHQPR
T3 sequence (A0A062XY19 entry or part of it G264D/N549D): as the sequence (A0A062XY19 entry or part of it) above, with G264D, N549D counted along it
T2 sequence (A0A062XY19 entry or part of it N549D): as the sequence (A0A062XY19 entry or part of it) above, with N549D counted along it

In assay [1], TaqCad1 R408D/A411E variant (enzyme) returned a stoichiometry N of 2. Take `Nc1ncnc2c1ncn2[C@@H]1O[C@@H]2COP(=O)(O)O[C@H]3[C@@H](O)[C@H](n4cnc5c(N)ncnc54)O[C@@H]3COP(=O)(O)O[C@H]3[C@@H](O)[C@H](n4cnc5c(N)ncnc54)O[C@@H]3COP(=O)(O)O[C@H]3[C@@H](O)[C@H](n4cnc5c(N)ncnc54)O[C@@H]3COP(=O)(O)O[C@H]2[C@H]1O` [cA4]: at TaqCad1 [2] (read-out: apparent Kd), the Kd was 13 ± 7 nM. In the case of `Nc1ncnc2c1ncn2[C@@H]1O[C@H](COP(=O)(O)OP(=O)(O)OP(=O)(O)O)[C@@H](O)[C@H]1O` [ATP], the “HPLC ATP deamination assay” value on TaqCad1 [3] and on TaqCad1 [4] was “the N549D or the N549D/G264D variant of TaqCad1 did not react to ATP” each time. For `Nc1ncnc2c1ncn2[C@@H]1O[C@@H]2COP(=O)(O)O[C@H]3[C@@H](O)[C@H](n4cnc5c(N)ncnc54)O[C@@H]3COP(=O)(O)O[C@H]3[C@@H](O)[C@H](n4cnc5c(N)ncnc54)O[C@@H]3COP(=O)(O)O[C@H]3[C@@H](O)[C@H](n4cnc5c(N)ncnc54)O[C@@H]3COP(=O)(O)O[C@H]3[C@@H](O)[C@H](n4cnc5c(N)ncnc54)O[C@@H]3COP(=O)(O)O[C@H]3[C@@H](O)[C@H](n4cnc5c(N)ncnc54)O[C@@H]3COP(=O)(O)O[C@H]2[C@H]1O` [cA6], the Kd at TaqCad1 [2] (read-out: apparent dissociation constant) is approximately 1400 nM.

Usually stoichiometry N stands for a count of units in the complex or per binding partner.
